Reference: patent US20250154115A1, “ARYLBENZOISOXAZOLE COMPOUNDS AS IP6K AND IPMK INHIBITORS AND METHODS OF USE THEREOF” (THE UNIVERSITY OF NORTH CAROLINA AT CHAPEL HILL, priority 2022, published 2025)

How the values were obtained:
IP6K1 = IP6K1 (Homo sapiens (Human), UniProt Q92551); test: Enzyme-coupled assay of IP6K1 activity (Dipp1-coupled, malachite green Pi release); type: biochemical; conditions: enzyme-coupled assay; Table 4
Method: (§1) […] The cells were disrupted using a constant cell disruption system (Constant Systems) under 20 kPsi.
(§2) Pi release was determined with a malachite green colorimetric assay.^45 Where indicated, TNP (Cayman Chemical) was added to the assays (FIG. 2A-E).

IPMK = IPMK (Homo sapiens (Human), UniProt Q8NFU5); test: Enzyme-coupled assay, IPMK IC50; type: biochemical; conditions: enzyme-coupled assay; Table 4
IP6K3 = IP6K3 (Homo sapiens (Human), UniProt Q96PC2); test: Enzyme-coupled assay of IP6K3 activity (Dipp1-coupled, malachite green Pi release); type: biochemical; conditions: enzyme-coupled assay; Table 4
IP6K2 = IP6K2 (Homo sapiens (Human), UniProt Q9UHH9); test: Enzyme-coupled assay of IP6K2 activity (Dipp1-coupled, malachite green Pi release); type: biochemical; conditions: enzyme-coupled assay; Table 4
Method: as §1, §2

diet-induced obese mice = conditions: cited from earlier work

Chain of IP6K1 (Q92551 whole entry): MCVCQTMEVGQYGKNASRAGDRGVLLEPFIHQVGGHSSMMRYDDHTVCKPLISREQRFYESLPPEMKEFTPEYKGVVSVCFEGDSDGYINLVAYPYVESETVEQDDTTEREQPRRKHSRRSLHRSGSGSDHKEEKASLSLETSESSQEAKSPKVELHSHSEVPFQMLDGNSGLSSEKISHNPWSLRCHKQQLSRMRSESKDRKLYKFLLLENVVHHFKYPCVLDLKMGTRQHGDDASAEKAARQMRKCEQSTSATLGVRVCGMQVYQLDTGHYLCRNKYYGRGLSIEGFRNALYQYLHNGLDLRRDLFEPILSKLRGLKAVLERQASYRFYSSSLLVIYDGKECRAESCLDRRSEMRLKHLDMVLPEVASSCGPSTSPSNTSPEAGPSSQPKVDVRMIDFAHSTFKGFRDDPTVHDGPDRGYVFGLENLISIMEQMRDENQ
Chain of IP6K2 (Q9UHH9 whole entry): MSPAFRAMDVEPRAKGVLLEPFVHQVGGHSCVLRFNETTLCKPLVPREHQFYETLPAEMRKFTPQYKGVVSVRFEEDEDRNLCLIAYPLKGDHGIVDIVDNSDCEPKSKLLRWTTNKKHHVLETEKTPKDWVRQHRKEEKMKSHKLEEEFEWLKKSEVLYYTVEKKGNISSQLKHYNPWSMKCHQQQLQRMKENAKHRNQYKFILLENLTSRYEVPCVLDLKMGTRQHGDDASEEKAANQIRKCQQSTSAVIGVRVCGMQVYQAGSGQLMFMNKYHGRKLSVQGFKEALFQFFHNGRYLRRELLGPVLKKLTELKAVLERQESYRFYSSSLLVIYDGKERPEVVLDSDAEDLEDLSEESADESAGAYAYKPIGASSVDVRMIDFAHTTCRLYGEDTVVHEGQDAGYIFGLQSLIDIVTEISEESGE
Chain of IP6K3 (Q96PC2 whole entry): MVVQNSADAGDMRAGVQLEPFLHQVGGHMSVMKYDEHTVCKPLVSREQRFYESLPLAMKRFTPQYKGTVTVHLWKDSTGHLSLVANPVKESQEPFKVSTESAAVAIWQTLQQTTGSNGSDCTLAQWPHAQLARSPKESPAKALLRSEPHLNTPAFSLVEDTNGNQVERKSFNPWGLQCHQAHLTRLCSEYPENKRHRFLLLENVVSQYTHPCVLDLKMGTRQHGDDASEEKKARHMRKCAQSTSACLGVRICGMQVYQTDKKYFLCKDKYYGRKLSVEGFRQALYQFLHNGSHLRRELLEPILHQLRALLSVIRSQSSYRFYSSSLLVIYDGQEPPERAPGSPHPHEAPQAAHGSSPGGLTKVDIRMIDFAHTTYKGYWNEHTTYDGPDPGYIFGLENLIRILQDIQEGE
Chain of IPMK (Q8NFU5 whole entry, species assumed): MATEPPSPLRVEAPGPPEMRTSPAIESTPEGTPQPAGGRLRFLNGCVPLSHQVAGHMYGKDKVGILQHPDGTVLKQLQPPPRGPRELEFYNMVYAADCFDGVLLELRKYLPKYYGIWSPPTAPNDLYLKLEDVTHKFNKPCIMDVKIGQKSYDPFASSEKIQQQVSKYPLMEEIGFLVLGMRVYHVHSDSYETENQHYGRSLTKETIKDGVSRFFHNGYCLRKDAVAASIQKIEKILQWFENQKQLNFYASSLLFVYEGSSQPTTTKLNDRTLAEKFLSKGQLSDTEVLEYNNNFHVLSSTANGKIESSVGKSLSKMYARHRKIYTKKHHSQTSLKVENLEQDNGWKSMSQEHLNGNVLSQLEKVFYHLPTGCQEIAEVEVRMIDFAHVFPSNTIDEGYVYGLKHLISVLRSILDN

| Structure (SMILES) | IC50 (IP6K1) | IC50 (IPMK) | IC50 (IP6K3) | IC50 (IP6K2) | Effect of treatment on obesity, insulin resistance and fatty liver (diet-induced obese mice) |
| --- | --- | --- | --- | --- | --- |
| Cc1cc(C)cc(-c2onc3ccc(-c4nnn[nH]4)cc23)c1 [Compound 65] | 0.01 to 0.1 µM | 0.01 to 0.1 µM | 0.1 to 1 µM | 0.01 to 0.1 µM | – |
| FC(F)(F)Oc1ccc(-c2onc3ccc(-c4nnn[nH]4)cc23)cc1 [Compound 66] | 0.01 to 0.1 µM | 0.01 to 0.1 µM | 0.1 to 1 µM | 0.01 to 0.1 µM | – |
| Clc1ccc(-c2onc3ccc(-c4nnn[nH]4)cc23)cc1Cl [Compound 67] | 0.01 to 0.1 µM | 0.01 to 0.1 µM | 0.1 to 1 µM | 0.1 to 1 µM | – |
| c1cncc(-c2ccc(-c3onc4ccc(-c5nnn[nH]5)cc34)cc2)c1 [Compound 69] | 0.01 to 0.1 µM | < 0.01 µM | 0.1 to 1 µM | 0.01 to 0.1 µM | – |
| c1ccc(Oc2ccc(-c3onc4ccc(-c5nnn[nH]5)cc34)cc2)cc1 [Compound 70] | 1 to 100 µM | < 0.01 µM | 0.1 to 1 µM | 0.1 to 1 µM | – |
| O=C(Nc1ccc(-c2onc3ccc(-c4nnn[nH]4)cc23)cc1)C1CC1 [Compound 71] | 0.01 to 0.1 µM | < 0.01 µM | < 0.01 µM | 0.1 to 1 µM | – |
| O=C(Nc1ccc(-c2onc3ccc(-c4nnn[nH]4)cc23)cc1)C1CCCC1 [Compound 72] | 0.01 to 0.1 µM | 0.01 to 0.1 µM | < 0.01 µM | 0.01 to 0.1 µM | – |
| O=C(Nc1cccc(-c2onc3ccc(-c4nnn[nH]4)cc23)c1)C1CCCC1 [Compound 73] | 0.01 to 0.1 µM | < 0.01 µM | 0.01 to 0.1 µM | 0.01 to 0.1 µM | – |
| O=C(Nc1cccc(-c2onc3ccc(-c4nnn[nH]4)cc23)c1)C1CC1 [Compound 74] | 0.01 to 0.1 µM | < 0.01 µM | 0.01 to 0.1 µM | 0.01 to 0.1 µM | – |
| CC(C)C(=O)Nc1cccc(-c2onc3ccc(-c4nnn[nH]4)cc23)c1 [Compound 75] | 0.1 to 1 µM | < 0.01 µM | 0.1 to 1 µM | 0.1 to 1 µM | – |
| Clc1ccccc1-c1onc2ccc(-c3nnn[nH]3)cc12 [Compound 76] | 0.01 to 0.1 µM | < 0.01 µM | 0.1 to 1 µM | 0.01 to 0.1 µM | – |
| COc1ccccc1-c1onc2ccc(-c3nnn[nH]3)cc12 [Compound 77] | 0.01 to 0.1 µM | 0.01 to 0.1 µM | 0.1 to 1 µM | 0.01 to 0.1 µM | – |
| CN(C)CCOc1cccc(-c2onc3ccc(-c4nnn[nH]4)cc23)c1 [Compound 78] | 0.1 to 1 µM | < 0.01 µM | 0.1 to 1 µM | 0.1 to 1 µM | – |
| CN(C)CCOc1ccc(-c2onc3ccc(-c4nnn[nH]4)cc23)cc1 [Compound 79] | 0.1 to 1 µM | 1 to 100 µM | 0.1 to 1 µM | 0.1 to 1 µM | – |
| Clc1cnc(Oc2cccc(-c3onc4ccc(-c5nnn[nH]5)cc34)c2)c(Cl)c1 [Compound 80] | 0.01 to 0.1 µM | 0.01 to 0.1 µM | 0.01 to 0.1 µM | 0.01 to 0.1 µM | – |
| c1cc(OCCN2CCOCC2)cc(-c2onc3ccc(-c4nnn[nH]4)cc23)c1 [Compound 83] | 0.01 to 0.1 µM | 0.01 to 0.1 µM | 0.1 to 1 µM | 0.1 to 1 µM | – |
| O=[N+]([O-])c1ccc(CNc2nc(NCc3cccc(C(F)(F)F)c3)nc3nc[nH]c23)cc1 [TNP, N2-(m-Trifluorobenzyl)-N6-(p-nitrobenzyl)purine] | – | – | – | – | ameliorates obesity, insulin resistance and fatty liver |
